Patent publication US10738030B2, “Modulators of cystic fibrosis transmembrane conductance regulator” (Vertex Pharmaceuticals Incorporated, priority 2016, dated 2020)

Target: T1, F508del (Homo sapiens, UniProt P13569, DEL508-508)
T1 construct: expressed in transfected cells
Experiment: Membrane potential optical assay (FRET voltage-sensor dyes), identification of correction compounds
Type: cell-based
Settings: NIH3T3 cells stably expressing F508del, procedures described above; for Emax: maximum efficacy, read-out: Max Efficacy; for EC50: modulation of CFTR activity
Method: (§1) NIH3T3 mouse fibroblasts stably expressing F508del are used for optical measurements of membrane potential. The cells are maintained at 37° C. in 5% CO2 and 90% humidity in Dulbecco's modified Eagle's medium supplemented with 2 mM glutamine, 10% fetal bovine serum, 1×NEAA, β-ME, 1× pen/strep, and 25 mM HEPES in 175 cm^2 culture flasks. For all optical assays, the cells were seeded at 12,000 cells/well in 384-well matrigel-coated plates and cultured for 18-24 hrs at 37° C. for the potentiator assay. For the correction assays, the cells are cultured at 37° C. with and without compounds for 18-24 hours.
Membrane potential optical methods for assaying F508del modulation properties of compounds.
The optical membrane potential assay utilized voltage-sensitive FRET sensors described by Gonzalez and Tsien (See Gonzalez, J. E. and R. Y. Tsien (1995) “Voltage sensing by fluorescence resonance energy transfer in single cells” Biophys J 69(4): 1272-80, and Gonzalez, J. E. and R. Y. Tsien (1997) “Improved indicators of cell membrane potential that use fluorescence resonance energy transfer” Chem Biol 4(4): 269-77) in combination with instrumentation for measuring fluorescence changes such as the Voltage/Ion Probe Reader (VIPR) (See, Gonzalez, J. E., K. Oades, et al. (1999) “Cell-based assays and instrumentation for screening ion-channel targets” Drug Discov Today 4(9): 431-439).
These voltage sensitive assays are based on the change in fluorescence resonant energy transfer (FRET) between the membrane-soluble, voltage-sensitive dye, DiSBAC2(3), and a fluorescent phospholipid, CC2-DMPE, which is attached to the outer leaflet of the plasma membrane and acts as a FRET donor. Changes in membrane potential (Vm) cause the negatively charged DiSBAC2(3) to redistribute across the plasma membrane and the amount of energy transfer from CC2-DMPE changes accordingly. The changes in fluorescence emission were monitored using VIPR™ II, which is an integrated liquid handler and fluorescent detector designed to conduct cell-based screens in 96- or 384-well microtiter plates.
To identify small molecules that correct the trafficking defect associated with F508del; a single-addition HTS assay format was developed. The cells were incubated in serum-free medium for 16 hrs at 37° C. in the presence or absence (negative control) of test compound. As a positive control, cells plated in 384-well plates were incubated for 16 hrs at 27° C. to “temperature-correct” F508del. The cells were subsequently rinsed 3× with Krebs Ringers solution and loaded with the voltage-sensitive dyes. To activate F508del, 10 μM forskolin and the CFTR potentiator, genistein (20 μM), were added along with Cl^−-free medium to each well. The addition of Cl^−-free medium promoted Cl^− efflux in response to F508del activation and the resulting membrane depolarization was optically monitored using the FRET-based voltage-sensor dyes.
• Bath Solution #1: (in mM) NaCl 160, KCl 4.5, CaCl2 2, MgCl2 1, HEPES 10, pH 7.4 with NaOH. • Chloride-free bath solution: Chloride salts in Bath Solution #1 (above) are substituted with gluconate salts. • CC2-DMPE: Prepared as a 10 mM stock solution in DMSO and stored at −20° C. • DiSBAC2(3): Prepared as a 10 mM stock in DMSO and stored at −20° C. Cell Culture
as §1, with “seeded at 30,000/well in 384-well” for “seeded at 12,000 cells/well in 384-well”, “cultured for 2 hrs at” for “cultured for 18-24 hrs at”, “37° C. before culturing at 27° C. for 24 hrs for the” for “37° C. for the”, “cultured at 27° C. or 37° C.” for “cultured at 37° C.”, “compounds for 16-24 hours.” for “compounds for 18-24 hours.”

T1 sequence (P13569 with tags, fused parts or gaps DEL508-508): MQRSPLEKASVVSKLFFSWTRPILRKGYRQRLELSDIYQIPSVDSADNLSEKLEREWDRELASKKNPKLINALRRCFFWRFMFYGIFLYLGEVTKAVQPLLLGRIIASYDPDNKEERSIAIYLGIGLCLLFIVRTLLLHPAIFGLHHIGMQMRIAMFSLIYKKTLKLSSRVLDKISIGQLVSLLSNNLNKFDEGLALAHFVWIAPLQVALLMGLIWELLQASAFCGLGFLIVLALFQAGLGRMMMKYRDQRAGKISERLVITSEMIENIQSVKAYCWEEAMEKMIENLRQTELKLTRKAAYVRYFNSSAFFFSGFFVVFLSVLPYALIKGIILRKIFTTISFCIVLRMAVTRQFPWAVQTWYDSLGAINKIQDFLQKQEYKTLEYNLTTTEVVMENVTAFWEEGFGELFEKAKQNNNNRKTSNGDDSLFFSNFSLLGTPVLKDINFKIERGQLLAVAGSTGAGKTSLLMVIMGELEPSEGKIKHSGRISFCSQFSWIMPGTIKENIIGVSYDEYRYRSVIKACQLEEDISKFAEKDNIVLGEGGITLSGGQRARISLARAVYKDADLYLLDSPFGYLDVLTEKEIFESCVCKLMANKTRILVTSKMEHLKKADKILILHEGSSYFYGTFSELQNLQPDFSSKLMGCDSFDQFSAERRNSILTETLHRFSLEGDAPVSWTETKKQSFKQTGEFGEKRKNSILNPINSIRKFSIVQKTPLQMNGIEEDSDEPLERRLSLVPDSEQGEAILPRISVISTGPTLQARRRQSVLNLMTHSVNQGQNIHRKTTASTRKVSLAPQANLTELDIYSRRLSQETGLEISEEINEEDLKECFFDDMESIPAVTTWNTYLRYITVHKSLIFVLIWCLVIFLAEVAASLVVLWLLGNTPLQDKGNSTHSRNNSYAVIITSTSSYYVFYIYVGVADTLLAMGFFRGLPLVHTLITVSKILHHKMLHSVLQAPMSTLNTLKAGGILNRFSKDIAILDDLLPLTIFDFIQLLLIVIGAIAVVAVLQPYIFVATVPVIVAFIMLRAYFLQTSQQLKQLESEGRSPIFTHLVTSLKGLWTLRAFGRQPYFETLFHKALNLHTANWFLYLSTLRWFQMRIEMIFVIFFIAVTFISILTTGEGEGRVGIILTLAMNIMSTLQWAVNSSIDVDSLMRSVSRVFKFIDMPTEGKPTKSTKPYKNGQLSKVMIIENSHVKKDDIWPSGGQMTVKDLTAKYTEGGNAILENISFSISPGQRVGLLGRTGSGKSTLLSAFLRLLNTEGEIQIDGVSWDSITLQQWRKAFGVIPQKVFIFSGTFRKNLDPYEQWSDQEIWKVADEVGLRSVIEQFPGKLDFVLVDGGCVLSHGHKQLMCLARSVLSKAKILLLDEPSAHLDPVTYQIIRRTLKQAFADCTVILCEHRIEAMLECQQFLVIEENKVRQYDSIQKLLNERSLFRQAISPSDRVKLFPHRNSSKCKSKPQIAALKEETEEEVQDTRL

SMILES	Emax [%]	EC50 [µM]
CC(C)Oc1nc(C(C)(C)C)ccc1C(=O)NS(=O)(=O)c1cccc(N)n1 [Compound 45, N-[(6-amino-2-pyridyl)sulfonyl]-6-tert-butyl-2-isopropoxy-pyridine-3-carboxamide]	30 to 80	3 to 10
CCN(CC)c1nc(-c2cc(F)cc(OCC(C)C)c2)ccc1C(=O)NS(=O)(=O)c1ccn[nH]1 [Compound 46, 2-(diethylamino)-6-(3-fluoro-5-isobutoxy-phenyl)-N-(1H-pyrazol-5-ylsulfonyl)pyridine-3-carboxamide]	30 to 80	< 3
CCC(CC)Oc1nc(-c2cc(F)cc(OCC(C)C)c2)ccc1C(=O)NS(=O)(=O)c1cccc(N)n1 [Compound 47, N-[(6-amino-2-pyridyl)sulfonyl]-2-(1-ethylpropoxy)-6-(3-fluoro-5-isobutoxy-phenyl)pyridine-3-carboxamide]	> 80	< 3
CC(C)COc1cc(F)cc(-c2ccc(C(=O)NS(=O)(=O)c3cccc(N)n3)c(OCC(F)(F)F)n2)c1 [Compound 48, N-[(6-amino-2-pyridyl)sulfonyl]-6-(3-fluoro-5-isobutoxy-phenyl)-2-(2,2,2-trifluoroethoxy)pyridine-3-carboxamide]	30 to 80	3 to 10
C=C(C)COc1nc(-c2cc(F)cc(OCC(C)C)c2)ccc1C(=O)NS(=O)(=O)c1cccc(N)n1 [Compound 49, N-[(6-amino-2-pyridyl)sulfonyl]-6-(3-fluoro-5-isobutoxy-phenyl)-2-(2-methylallyloxy)pyridine-3-carboxamide]	> 80	< 3
CC(C)COc1cc(F)cc(-c2ccc(C(=O)NS(=O)(=O)c3ccn[nH]3)c(NCCC(C)(C)C)n2)c1 [Compound 50, 2-(3,3-dimethylbutylamino)-6-(3-fluoro-5-isobutoxy-phenyl)-N-(1H-pyrazol-5-ylsulfonyl)pyridine-3-carboxamide]	30 to 80	3 to 10
COCC(C)(C)Oc1nc(-c2cc(F)cc(OCC(C)C)c2)ccc1C(=O)NS(=O)(=O)c1cccc(N)n1 [Compound 51, N-[(6-amino-2-pyridyl)sulfonyl]-6-(3-fluoro-5-isobutoxy-phenyl)-2-(2-methoxy-1,1-dimethyl-ethoxy)pyridine-3-carboxamide]	30 to 80	< 3
CC(C)COc1cc(F)cc(-c2ccc(C(=O)NS(=O)(=O)c3cccc(N)n3)c(N(C)CC(C)(C)C)n2)c1 [Compound 52, N-[(6-amino-2-pyridyl)sulfonyl]-2-[2,2-dimethylpropyl(methyl)amino]-6-(3-fluoro-5-isobutoxy-phenyl)pyridine-3-carboxamide]	> 80	< 3
CCN(CC)c1nc(-c2cc(F)cc(OCC(C)C)c2)ccc1C(=O)NS(=O)(=O)c1cccc(N)n1 [Compound 53, N-[(6-amino-2-pyridyl)sulfonyl]-2-(diethylamino)-6-(3-fluoro-5-isobutoxy-phenyl)pyridine-3-carboxamide]	> 80	< 3
CC(C)COc1cc(F)cc(-c2ccc(C(=O)NS(=O)(=O)c3cccc(N)n3)c(NC(C)C(C)C)n2)c1 (centres unmarked) [Compound 54, N-[(6-amino-2-pyridyl)sulfonyl]-2-(1,2-dimethylpropylamino)-6-(3-fluoro-5-isobutoxy-phenyl)pyridine-3-carboxamide]	30 to 80	3 to 10
CC(C)COc1cc(F)cc(-c2ccc(C(=O)NS(=O)(=O)c3cccc(N)n3)c(OCCOC(C)C)n2)c1 [Compound 55, N-[(6-amino-2-pyridyl)sulfonyl]-6-(3-fluoro-5-isobutoxy-phenyl)-2-(2-isopropoxyethoxy)pyridine-3-carboxamide]	30 to 80	< 3
CCCC(C)Oc1nc(-c2cc(F)cc(OCC(C)C)c2)ccc1C(=O)NS(=O)(=O)c1cccc(N)n1 (centres unmarked) [Compound 56, N-[(6-amino-2-pyridyl)sulfonyl]-6-(3-fluoro-5-isobutoxy-phenyl)-2-(1-methylbutoxy)pyridine-3-carboxamide]	> 80	< 3
CC(C)COc1cc(F)cc(-c2ccc(C(=O)NS(=O)(=O)c3cccc(N)n3)c(OCC(C)(F)F)n2)c1 [Compound 57, N-[(6-amino-2-pyridyl)sulfonyl]-2-(2,2-difluoropropoxy)-6-(3-fluoro-5-isobutoxy-phenyl)pyridine-3-carboxamide]	30 to 80	< 3
CC(C)COc1cc(F)cc(-c2ccc(C(=O)NS(=O)(=O)c3cccc(N)n3)c(NC(C)(C)C)n2)c1 [Compound 58, N-[(6-amino-2-pyridyl)sulfonyl]-2-(tert-butylamino)-6-(3-fluoro-5-isobutoxy-phenyl)pyridine-3-carboxamide]	> 80	< 3
CC[C@@H](C)Oc1nc(-c2cc(F)cc(OCC(C)C)c2)ccc1C(=O)NS(=O)(=O)c1cccc(N)n1 [Compound 59, N-[(6-amino-2-pyridyl)sulfonyl]-6-(3-fluoro-5-isobutoxy-phenyl)-2-[(1R)-1-methylpropoxy]pyridine-3-carboxamide]	30 to 80	< 3
COCCOc1nc(-c2cc(F)cc(OCC(C)C)c2)ccc1C(=O)NS(=O)(=O)c1cccc(N)n1 [Compound 60, N-[(6-amino-2-pyridyl)sulfonyl]-6-(3-fluoro-5-isobutoxy-phenyl)-2-(2-methoxyethoxy)pyridine-3-carboxamide]	30 to 80	< 3
CC(C)COc1cc(F)cc(-c2ccc(C(=O)NS(=O)(=O)c3cccc(N)n3)c(N(C)CC(C)C)n2)c1 [Compound 61, N-[(6-amino-2-pyridyl)sulfonyl]-6-(3-fluoro-5-isobutoxy-phenyl)-2-[isobutyl(methyl)amino]pyridine-3-carboxamide]	> 80	< 3
CCCC(C)C(C)Oc1nc(-c2cc(F)cc(OCC(C)C)c2)ccc1C(=O)NS(=O)(=O)c1cccc(N)n1 (centres unmarked) [Compound 62, N-[(6-amino-2-pyridyl)sulfonyl]-2-(1,2-dimethylpentoxy)-6-(3-fluoro-5-isobutoxy-phenyl)pyridine-3-carboxamide]	30 to 80	< 3
CCCCOc1nc(-c2cc(F)cc(OCC(C)C)c2)ccc1C(=O)NS(=O)(=O)c1cccc(N)n1 [Compound 63, N-[(6-amino-2-pyridyl)sulfonyl]-2-butoxy-6-(3-fluoro-5-isobutoxy-phenyl)pyridine-3-carboxamide]	> 80	< 3
CCCN(C)c1nc(-c2cc(F)cc(OCC(C)C)c2)ccc1C(=O)NS(=O)(=O)c1cccc(N)n1 [Compound 64, N-[(6-amino-2-pyridyl)sulfonyl]-6-(3-fluoro-5-isobutoxy-phenyl)-2-[methyl(propyl)amino]pyridine-3-carboxamide]	> 80	< 3
COC[C@@H](C)Oc1nc(-c2cc(F)cc(OCC(C)C)c2)ccc1C(=O)NS(=O)(=O)c1cccc(N)n1 [Compound 65, N-[(6-amino-2-pyridyl)sulfonyl]-6-(3-fluoro-5-isobutoxy-phenyl)-2-[(1R)-2-methoxy-1-methyl-ethoxy]pyridine-3-carboxamide]	30 to 80	< 3
CC(C)COc1cc(F)cc(-c2ccc(C(=O)NS(=O)(=O)c3cccc(N)n3)c(N(C)CC(F)(F)F)n2)c1 [Compound 66, N-[(6-amino-2-pyridyl)sulfonyl]-6-(3-fluoro-5-isobutoxy-phenyl)-2-[methyl(2,2,2-trifluoroethyl)amino]pyridine-3-carboxamide]	> 80	< 3
